Laboratory results as given in ChEMBL document CHEMBL5113415, “Synthesis of 10,10'-bis(trifluoromethyl) marinopyrrole A derivatives and evaluation of their antiviral activities in vitro” (Eur J Med Chem, 2022).

Tests used:
[1] = system: Enterovirus A71; assay: Antiviral activity against EV71 infected in human RD cells incubated for 3 days by CellTiter 96 luminescent cell viability assay; assay type: functional, organism-based; conditions: Enterovirus A, 71, RD, 72 h
[2] = Selectivity index, ratio of CC50 for […] to IC50 for ZIKV-SMGC-1 infected in […]; assay type: toxicity, cell-based; conditions: read-out: Ratio CC50/IC50
[3] = system: Coxsackievirus A16; assay: Antiviral activity against CA16 infected in human RD cells incubated for 3 days by CellTiter 96 luminescent cell viability assay; assay type: functional, organism-based; conditions: Enterovirus A, 72 h
[4] = Selectivity index, ratio of CC50 for human RD cells to IC50 for CA16 infected in human RD cells; assay type: toxicity, cell-based; conditions: read-out: Ratio CC50/IC50
[5] = Cytotoxicity against […] infected with DENV-NGC-1 incubated for 7 days by CellTiter 96 luminescent cell viability assay; assay type: toxicity, cell-based; conditions: time 7 day
[6] = system: Zika virus; assay: Antiviral activity against ZIKV-SMGC-1 infected in […] incubated for 7 days by CellTiter 96 luminescent cell viability assay; assay type: functional, organism-based; conditions: SMGC-1, BHK, 168 h
[7] = system: Japanese encephalitis virus; assay: Antiviral activity against JEV-SA14 infected in […] incubated for 7 days by CellTiter 96 luminescent cell viability assay; assay type: functional, organism-based; conditions: 168 h
[8] = Selectivity index, ratio of CC50 for human RD cells to IC50 for EV71 infected in human RD cells; assay type: toxicity, cell-based; conditions: read-out: Ratio CC50/IC50
[9] = Cytotoxicity against […] infected with JEV-SA14 incubated for 7 days by CellTiter 96 luminescent cell viability assay; assay type: toxicity, cell-based; conditions: time 7 day
[10] = Cytotoxicity against human RD cells infected with CA6 incubated for 3 days by CellTiter 96 luminescent cell viability assay; assay type: toxicity, cell-based; conditions: time 3 day
[11] = system: Dengue virus; assay: Antiviral activity against DENV-NGC-1 infected in […] incubated for 7 days by CellTiter 96 luminescent cell viability assay; assay type: functional, organism-based; conditions: NGC-1, BHK, 168 h
[12] = system: Coxsackievirus; assay: Antiviral activity against CA6 infected in human RD cells incubated for 3 days by CellTiter 96 luminescent cell viability assay; assay type: functional, organism-based; conditions: A6, RD, 72 h
[13] = Cytotoxicity against human RD cells infected with EV71 incubated for 3 days by CellTiter 96 luminescent cell viability assay; assay type: toxicity, cell-based; conditions: time 3 day
[14] = Selectivity index, ratio of CC50 for […] to IC50 for JEV-SA14 infected in […]; assay type: toxicity, cell-based; conditions: read-out: Ratio CC50/IC50
[15] = Selectivity index, ratio of CC50 for human RD cells to IC50 for CA6 infected in human RD cells; assay type: toxicity, cell-based; conditions: read-out: Ratio CC50/IC50
[16] = Cytotoxicity against human RD cells infected with CA16 incubated for 3 days by CellTiter 96 luminescent cell viability assay; assay type: toxicity, cell-based; conditions: time 3 day
[17] = Selectivity index, ratio of CC50 for […] to IC50 for DENV-NGC infected in […]; assay type: toxicity, cell-based; conditions: read-out: Ratio CC50/IC50
[18] = Selectivity index, ratio of CC50 for […] to IC50 for YFV-17D infected in […]; assay type: toxicity, cell-based; conditions: read-out: Ratio CC50/IC50
[19] = system: Yellow fever virus; assay: Antiviral activity against YFV-17D infected in […] incubated for 7 days by CellTiter 96 luminescent cell viability assay; assay type: functional, organism-based; conditions: 168 h
[20] = Cytotoxicity against […] infected with YFV-17D incubated for 7 days by CellTiter 96 luminescent cell viability assay; assay type: toxicity, cell-based; conditions: time 7 day
[21] = Cytotoxicity against […] infected with ZIKV-SMGC-1 incubated for 7 days by CellTiter 96 luminescent cell viability assay; assay type: toxicity, cell-based; conditions: time 7 day

O=C(c1ccc(C(F)(F)F)cc1O)c1[nH]c(Cl)c(Cl)c1-n1c(C(=O)c2ccc(C(F)(F)F)cc2O)cc(Cl)c1Sc1nc2ccccc2o1
IC50 [1]: 0.3 µM
selectivity ratio [2]: 5
IC50 [3]: 0.13 µM
selectivity ratio [4]: 12
CC50 at 168 h [5]: 1.8 µM
IC50 [6]: 0.36 µM
IC50 [7]: 1.25 µM
selectivity ratio [8]: 3.07
CC50 at 168 h [9]: 1.8 µM
CC50 at 72 h [10]: 1.56 µM
IC50 [11]: 0.36 µM
IC50 [12]: 0.49 µM
CC50 at 72 h [13]: 0.92 µM
selectivity ratio [14]: 1.44
selectivity ratio [15]: 3.18
CC50 at 72 h [16]: 1.56 µM
selectivity ratio [17]: 5

O=C(c1ccc(C(F)(F)F)cc1O)c1[nH]c(Cl)c(Cl)c1-n1c(C(=O)c2ccc(C(F)(F)F)cc2O)cc(Cl)c1Sc1cccs1
IC50 [1]: 0.02 µM
IC50 [3]: 0.01 µM
selectivity ratio [18]: 4.6
selectivity ratio [4]: 12.2
IC50 [7]: 0.05 µM
selectivity ratio [8]: 4
CC50 at 168 h [9]: 0.23 µM
CC50 at 72 h [10]: 0.11 µM
IC50 [19]: 0.05 µM
IC50 [12]: 0.03 µM
CC50 at 72 h [13]: 0.08 µM
selectivity ratio [14]: 4.59
CC50 at 168 h [20]: 0.23 µM
selectivity ratio [15]: 3.67
CC50 at 72 h [16]: 0.11 µM

C#C[C@@]1(O)[C@H](O)[C@@H](CO)O[C@H]1n1ccc2c(N)ncnc21
IC50 [1]: 0.5 µM
selectivity ratio [2]: > 12.3
IC50 [3]: 0.71 µM
selectivity ratio [18]: > 10.5
selectivity ratio [4]: > 28.2
CC50 at 168 h [5]: > 20 µM
IC50 [6]: 1.62 µM
IC50 [7]: 3.09 µM
selectivity ratio [8]: > 40
CC50 at 168 h [9]: > 20 µM
CC50 at 72 h [10]: > 20 µM
IC50 [11]: 5.05 µM
IC50 [19]: 1.91 µM
CC50 at 168 h [21]: > 20 µM
IC50 [12]: 0.92 µM
CC50 at 72 h [13]: > 20 µM
selectivity ratio [14]: > 6.47
CC50 at 168 h [20]: > 20 µM
selectivity ratio [15]: > 21.7
CC50 at 72 h [16]: > 20 µM
selectivity ratio [17]: > 3.96

O=C(c1ccc(C(F)(F)F)cc1O)c1[nH]c(Cl)c(Cl)c1-n1c(C(=O)c2ccc(C(F)(F)F)cc2O)cc(Cl)c1Sc1ncccn1
IC50 [1]: 0.09 µM
IC50 [3]: 0.03 µM
selectivity ratio [4]: 17.8
selectivity ratio [8]: 3.56
CC50 at 72 h [10]: 0.53 µM
IC50 [12]: 0.29 µM
CC50 at 72 h [13]: 0.32 µM
selectivity ratio [15]: 1.84
CC50 at 72 h [16]: 0.53 µM

Cn1nnnc1Sc1c(Cl)cc(C(=O)c2ccc(C(F)(F)F)cc2O)n1-c1c(C(=O)c2ccc(C(F)(F)F)cc2O)[nH]c(Cl)c1Cl
selectivity ratio [2]: 2.52
IC50 [3]: 0.96 µM
selectivity ratio [18]: 1.01
selectivity ratio [4]: 4.48
CC50 at 168 h [5]: 3.12 µM
IC50 [6]: 1.24 µM
IC50 [7]: 2.79 µM
CC50 at 168 h [9]: 2.48 µM
CC50 at 72 h [10]: 4.29 µM
IC50 [11]: 1.74 µM
IC50 [19]: 2.47 µM
CC50 at 168 h [21]: 3.12 µM
IC50 [12]: 2.75 µM
selectivity ratio [14]: 0.89
CC50 at 168 h [20]: 2.49 µM
selectivity ratio [15]: 1.56
CC50 at 72 h [16]: 4.3 µM
selectivity ratio [17]: 1.79

O=C(c1ccc(C(F)(F)F)cc1O)c1[nH]c(Cl)c(Cl)c1-n1c(C(=O)c2ccc(C(F)(F)F)cc2O)cc(Cl)c1SCc1ccccn1
IC50 [1]: 0.17 µM
IC50 [3]: 0.03 µM
selectivity ratio [4]: 11.5
IC50 [7]: 0.42 µM
selectivity ratio [8]: 1.43
CC50 at 168 h [9]: 0.26 µM
CC50 at 72 h [10]: 0.34 µM
CC50 at 168 h [21]: 0.32 µM
IC50 [12]: 0.19 µM
CC50 at 72 h [13]: 0.24 µM
selectivity ratio [14]: 0.61
selectivity ratio [15]: 1.8
CC50 at 72 h [16]: 0.34 µM
